Measurements: patent US20240174618A1, “SUBSTITUTED (2-HETEROARYLOXYPHENYL)SULFONATES, SALTS THEREOF AND THEIR USE AS HERBICIDAL AGENTS” (Bayer Aktiengesellschaft, priority 2021, published 2024)

Tests used:
Format in all cases: in vivo
[1] = tested on: Amaranthus retroflexus (AMARE); experiment: E. Herbicidal post-emergence efficacy, AMARE
How it was run: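 Greenhouse post-emergence spray, one-leaf stage (2–3 wk after sowing, sandy loam); WP/EC formulation, aqueous + 0.5% additive, 600 l/ha water; rates 320 g/ha or less. Visual rating ~3 wk later vs untreated; 0% = control-like, 100% = dead.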

[2] = tested on: Echinochloa crus-galli (ECHCG); experiment: C. Herbicidal pre-emergence efficacy, ECHCG; conditions: scored after about 3 weeks
Description: (§1) Seeds of monocotyledonous and dicotyledonous weed plants and crop plants were placed in plastic or organic planting pots and covered with soil. The compounds of the invention, formulated in the form of wettable powders (WP) or as emulsion concentrates (EC), were then applied to the surface of the covering soil as aqueous suspension or emulsion with addition of 0.5% additive at a water application rate equivalent to 600 l/ha (converted). After the treatment, the pots were placed in a greenhouse and kept under good growth conditions for the test plants. After about 3 weeks, the efficacy of the preparations was scored visually in comparison with untreated controls as percentages. For example, • 100% efficacy=plants have died, • 0% efficacy=like untreated control plants.
(§2) Tables C1a to C14b below show the effects of selected compounds of the general formula (I) according to table 1 on various harmful plants at an application rate corresponding to 320 g/ha or less, which were obtained by the experimental procedure mentioned above.

Lolium rigidum (LOLRI) [3] = experiment: C. Herbicidal pre-emergence efficacy, LOLRI; conditions: scored after about 3 weeks
Description: as §1, §2

[4] = tested on: Polygonum convolvulus (POLCO); experiment: C. Herbicidal pre-emergence efficacy, POLCO; conditions: scored after about 3 weeks
Description: as §1, §2

Veronica persica (VERPE) = experiment: C. Herbicidal pre-emergence efficacy, VERPE; conditions: scored after about 3 weeks
Description: as §1, §2

[5] = tested on: Triticum aestivum (TRZAS); experiment: F. Post-emergence effect on useful plants, TRZAS; conditions: useful plant
How it was run: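 Crop plants grown in sandy loam in the greenhouse were sprayed at the one-leaf stage, 2-3 weeks after sowing, with WP or EC formulations plus 0.5% additive at 600 l/ha water. Damage was scored visually after about 3 weeks against untreated controls (0% = like control, 100% = dead).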

[6] = tested on: Alopecurus myosuroides (ALOMY); experiment: C. Herbicidal pre-emergence efficacy, ALOMY; conditions: scored after about 3 weeks
Description: as §1, §2

Lolium rigidum (LOLRI) [7] = experiment: A. Herbicidal pre-emergence efficacy, LOLRI
How it was run: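 Pre-emergence soil-surface spray in sandy loam pots, WP/EC in water plus 0.5% additive, 600 L/ha. Visual % damage rating after about 3 weeks in greenhouse vs. untreated; 0% = control-like, 100% = dead plants. Rates up to 1280 g/ha.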

[8] = tested on: Triticum aestivum (TRZAS); experiment: D. Pre-emergence effect on useful plants, TRZAS; conditions: useful plant
Description: as §1
Tables D1a to D5b below show the effects of selected compounds of the general formula (I) according to table 1 on various useful plants at an application rate corresponding to 320 g/ha or less, which were obtained by the experimental procedure mentioned above.

Kochia scoparia (KCHSC) = experiment: C. Herbicidal pre-emergence efficacy, KCHSC
Description: as §1, §2

Row | Post-emergence efficacy against TRZAS in % ([5]; application rate 80 g/ha) [%] | Pre-emergence efficacy against TRZAS in % ([8]; application rate 80 g/ha) [%] | Post-emergence efficacy against TRZAS in % ([5]; application rate 320 g/ha) [%] | Pre-emergence efficacy against TRZAS in % ([8]; application rate 320 g/ha) [%] | Compound | Post-emergence efficacy against AMARE in % ([1]; application rate 80 g/ha) [%] | Post-emergence efficacy against AMARE in % ([1]; application rate 320 g/ha) [%] | Pre-emergence efficacy against ECHCG ([2]; 80 g/ha) [%] | Pre-emergence efficacy against ECHCG ([2]; 320 g/ha) [%] | Pre-emergence efficacy against LOLRI (Lolium rigidum (LOLRI) [3]; 320 g/ha) [%] | Pre-emergence efficacy against POLCO ([4]; 80 g/ha) [%] | Pre-emergence efficacy against POLCO ([4]; 320 g/ha) [%] | Pre-emergence efficacy against VERPE (Veronica persica (VERPE); 80 g/ha) [%] | Pre-emergence efficacy against VERPE (Veronica persica (VERPE); 320 g/ha) [%] | Pre-emergence efficacy against ALOMY ([6]; 80 g/ha) [%] | Pre-emergence efficacy against ALOMY ([6]; 320 g/ha) [%] | Pre-emergence efficacy against LOLRI (Lolium rigidum (LOLRI) [3]; 80 g/ha) [%] | Pre-emergence efficacy against LOLRI (Lolium rigidum (LOLRI) [7]; dosage 320 g/ha) [%] | Pre-emergence efficacy against LOLRI (Lolium rigidum (LOLRI) [7]; dosage 1280 g/ha) [%] | Pre-emergence efficacy against KCHSC in % (Kochia scoparia (KCHSC); application rate 80 g/ha) [%] | Pre-emergence efficacy against KCHSC in % (Kochia scoparia (KCHSC); application rate 320 g/ha) [%]
1 | 20 | – | – | – | O=S(=O)(CCCCl)Oc1ccccc1Oc1ncc(F)cn1 [Example I-5] | 100 | 100 | 100 | 100 | 80 | 90 | 100 | 100 | 100 | 90 | 100 | – | – | – | – | –
2 | – | – | – | – | CCCCS(=O)(=O)Oc1ccccc1Oc1ncc(Cl)cn1 [Example I-6] | 90 | 100 | 100 | 100 | 100 | 90 | 90 | 80 | 90 | 80 | 90 | 80 | 90 | 90 | – | –
3 | 20 | 20 | – | – | O=S(=O)(CCl)Oc1ccccc1Oc1ncc(Cl)cn1 [Example I-9] | 100 | 100 | – | 90 | – | – | 90 | – | 100 | – | 80 | – | – | 90 | – | –
4 | – | – | – | – | O=S(=O)(CCCC(F)(F)F)Oc1ccccc1Oc1ncc(Cl)cn1 [Example I-10] | 100 | 100 | 100 | 100 | 100 | 90 | 100 | 100 | 100 | 100 | 100 | 90 | 90 | 90 | – | –
5 | 0 | 0 | 0 | – | Cc1cccc(OS(=O)(=O)CCCCl)c1Oc1ncc(Cl)cn1 [Example I-12] | 90 | 90 | 90 | 90 | – | – | – | – | 90 | – | – | – | – | 90 | – | –
6 | – | – | – | – | O=S(=O)(CCCCCl)Oc1ccccc1Oc1ncc(Cl)cn1 [Example I-15] | 100 | 100 | – | 90 | 80 | 80 | 100 | – | 80 | – | 90 | – | – | 90 | – | –
7 | – | – | – | – | CCS(=O)(=O)Oc1ccccc1Oc1ncc(Cl)cn1 [Example I-16] | – | – | – | – | – | – | – | – | – | – | – | – | – | 90 | – | –
8 | 0 | 0 | 0 | 0 | CCCCCS(=O)(=O)Oc1ccccc1Oc1ncc(Cl)cn1 [Example I-24] | 90 | 100 | – | 100 | – | – | 80 | – | 90 | – | – | – | – | 100 | – | –
9 | 0 | 0 | 0 | 0 | CC(C)CCS(=O)(=O)Oc1ccccc1Oc1ncc(Cl)cn1 [Example I-25] | – | 90 | 100 | 100 | – | 80 | 90 | 80 | 100 | – | 80 | – | 90 | 100 | – | –
10 | – | – | – | – | Cc1cccc(Oc2ncc(Cl)cn2)c1OS(=O)(=O)CCCC(F)(F)F [Example I-28, 2-[(5-Chloropyrimidin-2-yl)oxy]-6-methylphenyl 4,4,4-trifluorobutane-1-sulfonate] | – | – | – | – | – | – | – | – | – | – | – | – | 90 | 100 | – | –
11 | – | – | – | – | Cc1cccc(Oc2ncc(Cl)cn2)c1OS(=O)(=O)CCC(F)(F)F [Example I-29] | – | – | – | – | – | – | – | – | – | – | – | – | 100 | 100 | – | –
12 | – | – | – | – | O=S(=O)(CCCC(F)(F)F)Oc1c(Br)cccc1Oc1ncc(Cl)cn1 [Example I-30] | – | – | – | – | – | – | – | – | – | – | – | – | 90 | 100 | – | –
13 | – | – | – | – | O=S(=O)(CCC(F)(F)F)Oc1c(Br)cccc1Oc1ncc(Cl)cn1 [Example I-31] | – | – | – | – | – | – | – | – | – | – | – | – | – | 100 | – | –
14 | 0 | 0 | 20 | 10 | O=S(=O)(CCC(F)(F)F)Oc1c(Cl)cccc1Oc1ncc(Br)cn1 [Example I-32] | 100 | 100 | – | 90 | – | – | 100 | 80 | 100 | – | 100 | – | – | 90 | 100 | 100
15 | 0 | 0 | 0 | 0 | C=CCS(=O)(=O)Oc1ccccc1Oc1ncc(Cl)cn1 [Example I-36] | – | – | – | 80 | – | – | 90 | – | – | – | – | – | – | 100 | – | 100
16 | 0 | 0 | 0 | – | O=S(=O)(CCC(F)(F)F)Oc1c(Br)cccc1Oc1ncc(F)cn1 [Example I-43] | 100 | 100 | – | 90 | – | 90 | 90 | – | – | – | – | – | 100 | 100 | 100 | 100
17 | 20 | 0 | 20 | 10 | O=S(=O)(CCCC(F)(F)C(F)(F)F)Oc1c(F)cccc1Oc1ncc(Cl)cn1 [Example I-68] | 90 | 100 | – | 90 | – | 90 | 90 | 90 | 90 | – | 90 | – | – | 100 | 100 | 100
18 | 0 | 0 | – | – | Cc1cccc(Oc2ncc(Cl)cn2)c1OS(=O)(=O)CC1CC(F)(F)C1 [Example I-74] | 90 | 100 | – | 100 | – | – | 90 | 80 | 100 | – | – | – | – | 100 | – | 90

Row | Compound | Post-emergence efficacy against TRZAS in % ([5]; application rate 80 g/ha) [%] | Pre-emergence efficacy against TRZAS in % ([8]; application rate 80 g/ha) [%] | Post-emergence efficacy against TRZAS in % ([5]; application rate 320 g/ha) [%] | Pre-emergence efficacy against TRZAS in % ([8]; application rate 320 g/ha) [%] | Post-emergence efficacy against AMARE in % ([1]; application rate 80 g/ha) [%] | Post-emergence efficacy against AMARE in % ([1]; application rate 320 g/ha) [%] | Pre-emergence efficacy against ECHCG ([2]; 80 g/ha) [%] | Pre-emergence efficacy against ECHCG ([2]; 320 g/ha) [%] | Pre-emergence efficacy against LOLRI (Lolium rigidum (LOLRI) [3]; 320 g/ha) [%] | Pre-emergence efficacy against POLCO ([4]; 80 g/ha) [%] | Pre-emergence efficacy against POLCO ([4]; 320 g/ha) [%] | Pre-emergence efficacy against VERPE (Veronica persica (VERPE); 80 g/ha) [%] | Pre-emergence efficacy against VERPE (Veronica persica (VERPE); 320 g/ha) [%] | Pre-emergence efficacy against ALOMY ([6]; 80 g/ha) [%] | Pre-emergence efficacy against ALOMY ([6]; 320 g/ha) [%] | Pre-emergence efficacy against LOLRI (Lolium rigidum (LOLRI) [3]; 80 g/ha) [%] | Pre-emergence efficacy against LOLRI (Lolium rigidum (LOLRI) [7]; dosage 320 g/ha) [%] | Pre-emergence efficacy against LOLRI (Lolium rigidum (LOLRI) [7]; dosage 1280 g/ha) [%] | Pre-emergence efficacy against KCHSC in % (Kochia scoparia (KCHSC); application rate 80 g/ha) [%] | Pre-emergence efficacy against KCHSC in % (Kochia scoparia (KCHSC); application rate 320 g/ha) [%]
19 | O=S(=O)(CCCCl)Oc1cccc(F)c1Oc1ncc(Cl)cn1 [Example I-13] | 10 | 10 | 10 | 10 | – | 80 | – | 80 | – | – | – | – | 90 | – | – | – | – | 90 | – | –
20 | O=S(=O)(CCCC(F)(F)F)Oc1c(Cl)cccc1Oc1ncc(Br)cn1 [Example I-34] | 0 | 0 | 20 | 0 | 100 | 100 | – | 90 | – | – | 100 | 80 | 100 | – | 80 | – | – | – | 90 | 100
